From patent US6495578B1, “Sulfonamide derivatives having oxadiazole rings” (Shionogi & Co., Ltd., priority 1999, dated 2002)

Target: T1, MMP-2 (Homo sapiens, UniProt P08253)
T1 construct: purchased Calbiochem-Novabiochem International, Inc
T1 sequence (P08253 110-660): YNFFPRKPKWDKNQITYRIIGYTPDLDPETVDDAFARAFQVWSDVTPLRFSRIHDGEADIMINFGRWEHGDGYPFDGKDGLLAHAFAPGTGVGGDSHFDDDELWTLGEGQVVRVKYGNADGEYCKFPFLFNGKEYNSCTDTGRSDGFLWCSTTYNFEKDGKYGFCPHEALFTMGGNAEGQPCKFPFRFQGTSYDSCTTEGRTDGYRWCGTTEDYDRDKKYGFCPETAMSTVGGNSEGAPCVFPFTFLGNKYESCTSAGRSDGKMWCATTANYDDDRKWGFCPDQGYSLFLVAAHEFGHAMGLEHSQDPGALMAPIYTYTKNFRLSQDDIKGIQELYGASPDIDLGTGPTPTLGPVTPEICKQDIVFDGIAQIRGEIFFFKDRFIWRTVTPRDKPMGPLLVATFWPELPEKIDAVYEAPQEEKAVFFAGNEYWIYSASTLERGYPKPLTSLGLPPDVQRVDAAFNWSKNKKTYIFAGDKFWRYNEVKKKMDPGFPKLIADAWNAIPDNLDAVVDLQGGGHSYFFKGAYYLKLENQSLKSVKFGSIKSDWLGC
Test: Assay for inhibitory activities on MMP-2 (fluorogenic coumarin-labelled peptide substrate)
Type: biochemical
Settings: MMP-2 purchased from Calbiochem-Novabiochem; substrate MOCAc-Pro-Leu-Gly-Leu-A2Pr(DNP)-Ala-Arg-NH2
Procedure: MMP-2 was purchased from Calbiochem-Novabiochem International, Inc.
The enzymatic activity on MMP-2 was analyzed by the method described in “C. Graham Knight, Frances Willenbrock and Gillian Murphy: A novel coumarin-labelled peptide for sensitive continuous assays of the matrix metalloproteinases: FEBS LETT., 296, (1992), 263-266”. The substrate: MOCAc-Pro-Leu-Gly-Leu-A2Pr(DNP)-Ala-Arg-NH2 was purchased from Peptide Institute, Inc., Osaka, Japan.
The measurement of the inhibitory activities (IC50) was carried out by the following four methods;
A) Reaction with substrate, enzyme (MMPs) and inhibitor
B) Reaction with substrate and inhibitor, without enzyme
C) Reaction with substrate and enzyme (MMPs), without inhibitor
D) Reaction with substrate only
IC50 values were calculated by using the following formula and each fluorescence values of above four methods (A to D).
IC50 means the concentration required to inhibit 50% of the enzyme activity.

Structure (SMILES) | IC50
O=C(O)[C@@H](Cc1ccccc1)NS(=O)(=O)c1ccc(-c2noc(-c3cccs3)n2)cc1 [Compound A-40] | 31 nM
O=C(O)[C@@H](Cc1ccccc1)NS(=O)(=O)c1ccc(-c2noc(-c3cccnc3)n2)cc1 [Compound A-43] | 171 nM
C[C@@H](NS(=O)(=O)c1ccc(-c2noc(-c3ccco3)n2)cc1)C(=O)O [Compound A-56] | 70.5 nM
O=C(O)[C@@H](Cc1ccccc1)NS(=O)(=O)c1ccc(-c2noc(-c3ccc(Cl)cc3)n2)cc1 [Compound A-6] | 13.9 nM
CCCCc1ccc(-c2nc(-c3ccc(S(=O)(=O)N[C@@H](C(=O)O)C(C)C)cc3)no2)cc1 [Compound A-4] | 1.23 nM
Cc1cccc(-c2nc(-c3ccc(S(=O)(=O)N[C@H](Cc4ccccc4)C(=O)O)cc3)no2)c1 [Compound A-36] | 38 nM
Cc1ccc(-c2nc(-c3ccc(S(=O)(=O)N[C@H](C(=O)O)C(C)C)cc3)no2)s1 [Compound A-25] | 47.4 nM
O=C(O)[C@@H](Cc1ccccc1)NS(=O)(=O)c1ccc(-c2noc(-c3ccccc3)n2)cc1 [Compound A-29] | 27.9 nM
C[C@@H](NS(=O)(=O)c1ccc(-c2noc(-c3ccc(F)cc3)n2)s1)C(=O)O [Compound B-7] | 39.7 nM
C[C@@H](NS(=O)(=O)c1ccc(-c2noc(-c3ccc(F)cc3)n2)cc1)C(=O)O [Compound A-45] | 31 nM
C[C@@H](NS(=O)(=O)c1ccc(-c2noc(-c3ccc(Cl)s3)n2)cc1)C(=O)O [Compound A-54] | 12.4 nM
C[C@@H](NS(=O)(=O)c1ccc(-c2noc(-c3ccccc3)n2)cc1)C(=O)O [Compound A-44] | 45 nM
CCCc1ccc(-c2nc(-c3ccc(S(=O)(=O)N[C@H](Cc4ccccc4)C(=O)O)s3)no2)cc1 [Compound B-5] | 36.1 nM
C[C@@H](NS(=O)(=O)c1ccc(-c2noc(-c3cccs3)n2)cc1)C(=O)O [Compound A-52] | 36.8 nM
CCc1ccc(-c2nc(-c3ccc(S(=O)(=O)N[C@H](C)C(=O)O)cc3)no2)cc1 [Compound A-47] | 4.63 nM
CC(C)c1ccc(-c2nc(-c3ccc(S(=O)(=O)NCC(=O)O)cc3)no2)cc1 [Compound A-60] | 14.3 nM
C[C@@H](NS(=O)(=O)c1ccc(-c2noc(-c3ccsc3)n2)cc1)C(=O)O [Compound A-55] | 50.3 nM
Cc1ccc(-c2nc(-c3ccc(S(=O)(=O)N[C@H](C)C(=O)O)cc3)no2)s1 [Compound A-53] | 8.74 nM
O=C(O)[C@@H](Cc1ccccc1)NS(=O)(=O)c1ccc(-c2noc(-c3ccc(F)cc3)n2)s1 [Compound B-3] | 223 nM
CN(C)c1ccc(-c2nc(-c3ccc(S(=O)(=O)N[C@H](Cc4ccccc4)C(=O)O)cc3)no2)cc1 [Compound A-8] | 11.9 nM
Cc1ccc(-c2nc(-c3ccc(S(=O)(=O)NCC(=O)O)cc3)no2)s1 [Compound A-63] | 33.9 nM
COc1ccc(-c2nc(-c3ccc(S(=O)(=O)N[C@@H](Cc4ccccc4)C(=O)O)cc3)no2)cc1OC [Compound A-38] | 506 nM
Cc1ccc(-c2nc(-c3ccc(S(=O)(=O)N[C@H](Cc4ccccc4)C(=O)O)cc3)no2)s1 [Compound A-41] | 5.59 nM
O=C(O)CNS(=O)(=O)c1ccc(-c2noc(-c3ccc(Cl)cc3)n2)cc1 [Compound A-13] | 85.2 nM
Cc1ccc(-c2nc(-c3ccc(S(=O)(=O)N[C@H](Cc4ccccc4)C(=O)O)cc3)no2)cc1 [Compound A-5] | 6.68 nM
Cc1ccc(-c2nc(-c3ccc(S(=O)(=O)N[C@@H](C)C(=O)O)cc3)no2)cc1 [Compound A-46] | 458 nM
CCc1ccc(-c2nc(-c3ccc(S(=O)(=O)NCC(=O)O)cc3)no2)cc1 [Compound A-59] | 20 nM

Structure (SMILES) | IC50
N#Cc1ccc(-c2nc(-c3ccc(S(=O)(=O)N[C@H](Cc4ccccc4)C(=O)O)cc3)no2)cc1 [Compound A-34] | 13.1 nM
Cc1ccc(-c2nc(-c3ccc(S(=O)(=O)N[C@@H](C(=O)O)C(C)C)cc3)no2)s1 [Compound A-24] | 2.88 nM
Cc1ccc(-c2nc(-c3ccc(S(=O)(=O)N[C@H](C)C(=O)O)s3)no2)s1 [Compound B-10] | 6.29 nM
Cc1ccc(-c2nc(-c3ccc(S(=O)(=O)N[C@H](C)C(=O)O)cc3)no2)cc1 [Compound A-10] | 9.17 nM
CC(C)[C@H](NS(=O)(=O)c1ccc(-c2noc(-c3ccc(Cl)s3)n2)cc1)C(=O)O [Compound A-27] | 60.3 nM
CC(C)[C@@H](NS(=O)(=O)c1ccc(-c2noc(-c3ccc(Cl)cc3)n2)cc1)C(=O)O [Compound A-2] | 5.75 nM
CCCc1ccc(-c2nc(-c3ccc(S(=O)(=O)N[C@H](C(=O)O)C(C)C)cc3)no2)cc1 [Compound A-21] | 126 nM
Cc1ccc(-c2nc(-c3ccc(S(=O)(=O)NCC(=O)O)cc3)no2)cc1 [Compound A-12] | 51.6 nM
CCc1ccc(-c2nc(-c3ccc(S(=O)(=O)N[C@H](Cc4ccccc4)C(=O)O)s3)no2)cc1 [Compound B-4] | 17.8 nM
CCCc1ccc(-c2nc(-c3ccc(S(=O)(=O)NCC(=O)O)cc3)no2)cc1 [Compound A-61] | 15.7 nM
CCc1ccc(-c2nc(-c3ccc(S(=O)(=O)N[C@@H](C(=O)O)C(C)C)s3)no2)cc1 [Compound B-2] | 5.39 nM
O=C(O)[C@@H](Cc1ccccc1)NS(=O)(=O)c1ccc(-c2noc(-c3ccc(C4CCCCC4)cc3)n2)cc1 [Compound A-35] | 14.4 nM
O=C(O)[C@@H](Cc1ccccc1)NS(=O)(=O)c1ccc(-c2noc(-c3ccco3)n2)cc1 [Compound A-42] | 47 nM
C[C@@H](NS(=O)(=O)c1ccc(-c2noc(-c3cccs3)n2)s1)C(=O)O [Compound B-9] | 28 nM
CCc1ccc(-c2nc(-c3ccc(S(=O)(=O)NCC(=O)O)s3)no2)cc1 [Compound B-16] | 12.6 nM
Cc1ccc(-c2nc(-c3ccc(S(=O)(=O)NCC(=O)O)s3)no2)cc1 [Compound B-15] | 39 nM
C[C@@H](NS(=O)(=O)c1ccc(-c2noc(-c3ccc(Cl)cc3)n2)cc1)C(=O)O [Compound A-11] | 18.6 nM
CC(C)[C@@H](NS(=O)(=O)c1ccc(-c2noc(-c3ccc(F)cc3)n2)s1)C(=O)O [Compound B-1] | 67.7 nM
Cc1ccc(-c2nc(-c3ccc(S(=O)(=O)NC(C(=O)O)C(C)C)cc3)no2)cc1 (stereo not drawn) [Compound A-19] | 114 nM
Cc1ccc(-c2nc(-c3ccc(S(=O)(=O)N[C@H](Cc4ccccc4)C(=O)O)s3)no2)s1 [Compound B-6] | 26.5 nM
CC(C)[C@H](NS(=O)(=O)c1ccc(-c2noc(-c3cccs3)n2)cc1)C(=O)O [Compound A-23] | 339 nM
Cc1ccc(-c2nc(-c3ccc(S(=O)(=O)N[C@@H](Cc4ccccc4)C(=O)O)cc3)no2)cc1 [Compound A-30] | 39.8 nM
O=C(O)CNS(=O)(=O)c1ccc(-c2noc(-c3ccc(F)cc3)n2)s1 [Compound B-14] | 224 nM
CCc1ccc(-c2nc(-c3ccc(S(=O)(=O)N[C@H](Cc4ccccc4)C(=O)O)cc3)no2)cc1 [Compound A-31] | 4.98 nM
CCc1ccc(-c2nc(-c3ccc(S(=O)(=O)N[C@@H](C(=O)O)C(C)C)cc3)no2)cc1 [Compound A-3] | 1.24 nM
CCCCc1ccc(-c2nc(-c3ccc(S(=O)(=O)N[C@H](Cc4ccccc4)C(=O)O)cc3)no2)cc1 [Compound A-9] | 6.04 nM
CC(C)[C@@H](NS(=O)(=O)c1ccc(-c2noc(-c3ccc(F)cc3)n2)cc1)C(=O)O [Compound A-17] | 15.5 nM
